pEC50, pIC50, pKi: −log10 of the molar value. Read-outs that look alike come from different tables or passages of the source.
Experiments:
[1] = system: eEPC adhesion to MCEC-1 cells; assay: eEPC adhesion to MCEC-1 cells under static conditions; type: cell-based, mouse; settings: for pIC50: read-out: IC50, inhibition of NECA-induced eEPC adhesion
A2B adenosine receptor [2] = settings: [15] Martin et al. (1993); NECA-stimulated atrium (A1) or aorta (A2A); cited from earlier work
A2A adenosine receptor [3] = target: A2A adenosine receptor (Cavia porcellus, UniProt P46616); settings: [15] Martin et al. (1993); NECA-stimulated atrium (A1) or aorta (A2A); cited from earlier work
A2A adenosine receptor (Cavia porcellus, UniProt P46616), sequence (P46616 whole entry): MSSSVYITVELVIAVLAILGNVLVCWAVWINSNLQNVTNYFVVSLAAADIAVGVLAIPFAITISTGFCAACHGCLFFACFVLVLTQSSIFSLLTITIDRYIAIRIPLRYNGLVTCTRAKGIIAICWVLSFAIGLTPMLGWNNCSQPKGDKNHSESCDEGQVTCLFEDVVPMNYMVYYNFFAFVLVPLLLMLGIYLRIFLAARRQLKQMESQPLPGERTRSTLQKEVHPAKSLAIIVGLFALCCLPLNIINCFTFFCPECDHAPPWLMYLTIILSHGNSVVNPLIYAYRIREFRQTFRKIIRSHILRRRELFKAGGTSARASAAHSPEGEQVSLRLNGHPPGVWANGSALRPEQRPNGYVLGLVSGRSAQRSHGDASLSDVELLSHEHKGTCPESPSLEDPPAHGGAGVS

A1 receptors = target: T1, A1 receptors (Mus musculus, UniProt Q60612); assay: Inhibition of forskolin-stimulated cAMP accumulation in mouse eEPCs; settings: read-out: EC50, antagonism of the action of CPA on forskolin-stimulated cAMP accumulation; eEPCs; 10 nmol/L CPA; 1 μmol/L forskolin
T1 sequence (Q60612 1-326): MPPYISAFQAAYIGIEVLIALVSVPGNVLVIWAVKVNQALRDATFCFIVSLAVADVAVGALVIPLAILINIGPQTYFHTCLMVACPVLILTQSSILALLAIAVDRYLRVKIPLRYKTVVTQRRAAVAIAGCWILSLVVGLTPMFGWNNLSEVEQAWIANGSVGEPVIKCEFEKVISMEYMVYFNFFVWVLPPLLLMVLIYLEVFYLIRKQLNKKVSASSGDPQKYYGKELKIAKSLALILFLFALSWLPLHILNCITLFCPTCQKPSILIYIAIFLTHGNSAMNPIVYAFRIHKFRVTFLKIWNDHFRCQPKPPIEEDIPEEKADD

A2A adenosine receptor [4] = target: T2, A2A adenosine receptor (Mus musculus, UniProt Q60612); assay: Potency at mouse receptor, current study, in A2A of Table 1; type: cell-based; settings: data from the current study (no reference)
T2 construct: from tissue; host or cells: isolated perfused C57Bl/6 mouse heart (my inference)
T2 sequence (Q60612 1-326): T1 sequence (Q60612 1-326)
Description: Measurement of cAMP accumulation.

A2B receptors = target: T3, A2B receptors (Mus musculus, UniProt Q60614); assay: NECA-stimulated cAMP accumulation in MCEC-1 cells; settings: data from the current study (no reference); for Affinity or potency (Ki, KD, KB, IC50 or EC50) at A2B, mouse (m), current study: 95% CI in parentheses
T3 sequence (Q60614 1-332): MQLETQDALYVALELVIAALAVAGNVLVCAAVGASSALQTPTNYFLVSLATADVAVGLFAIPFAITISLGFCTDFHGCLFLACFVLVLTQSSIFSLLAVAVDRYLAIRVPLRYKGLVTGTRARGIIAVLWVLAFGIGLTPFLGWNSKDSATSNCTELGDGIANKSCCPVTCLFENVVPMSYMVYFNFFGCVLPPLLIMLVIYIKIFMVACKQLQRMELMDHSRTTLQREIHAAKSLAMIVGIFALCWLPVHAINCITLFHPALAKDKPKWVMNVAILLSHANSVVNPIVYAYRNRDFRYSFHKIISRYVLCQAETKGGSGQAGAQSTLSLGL

[5] = system: eEPC adhesion to MCEC-1 cells; assay: eEPC adhesion to MCEC-1 cells under flow conditions; type: cell-based, mouse; settings: 10 μmol/L; shear stress 0.75 and 1 dyne/cm^2; 10 minutes
Procedure: Analysis of cell adhesion under flow conditions. Adhesion assays under flow conditions were performed using a parallel plate flow chamber (Glycotech, Rockville, Md.) following the manufacturer's instructions. Cell suspension or cell-free medium were drown into chambers by a syringe pump (Model 44, Harvard Apparatus, Inc., Holliston, Mass.) at a constant rate to generate a desired wall shear stress (τ, dynes/cm2) using the formula τ=6Qμ/a^2b, where Q is flow rate, μ is medium viscosity, b is channel width, and a is channel height. […] Cell adhesion was determined by analysis of digitized video recordings using NIH Image software. Cell-based P-selectin enzyme-linked immunoassay To analyze cell-surface P-selectin expression, the inventors used a previously published method (Cleator et al., 2005). […] After washing and blocking, cells were incubated with 5 μg/mL rat anti-mouse CD62P antibodies (Fitzgerald Industries) or rat isotype-matched control antibody (BD Biosciences) for 1 hour. After washing, a secondary goat anti-rat horseradish peroxidase-conjugated antibody (Jackson ImmunoResearch, West Grove, Pa.) was added for 1 hour followed by washing and then analyzed at […] after addition of substrate.

[6] = system: CE-EPC adhesion to HMVEC-c cells; assay: Adhesion of human culture-expanded EPCs (CE-EPCs) to HMVEC-c cells; settings: increasing concentrations
HMVEC-c cells = assay: cAMP accumulation in HMVEC-c cells; type: cell-based, human
Description: Primary cultures of human cardiac microvascular endothelial cells (HMVEC-c) were obtained from Cambrex (Walkersville, Md.), and cultured using EGM™-2 MV growth medium (Cambrex). HMVEC-c from passages 2 to 5 were used. Measurement of cAMP accumulation.

eEPCs = assay: cAMP accumulation in mouse eEPCs (forskolin, NECA); settings: FIG. 1B
A2A adenosine receptor [7] = target: A2A adenosine receptor (Rattus norvegicus, UniProt P30543); settings: cited from earlier work
A2A adenosine receptor (Rattus norvegicus, UniProt P30543), sequence (P30543 whole entry): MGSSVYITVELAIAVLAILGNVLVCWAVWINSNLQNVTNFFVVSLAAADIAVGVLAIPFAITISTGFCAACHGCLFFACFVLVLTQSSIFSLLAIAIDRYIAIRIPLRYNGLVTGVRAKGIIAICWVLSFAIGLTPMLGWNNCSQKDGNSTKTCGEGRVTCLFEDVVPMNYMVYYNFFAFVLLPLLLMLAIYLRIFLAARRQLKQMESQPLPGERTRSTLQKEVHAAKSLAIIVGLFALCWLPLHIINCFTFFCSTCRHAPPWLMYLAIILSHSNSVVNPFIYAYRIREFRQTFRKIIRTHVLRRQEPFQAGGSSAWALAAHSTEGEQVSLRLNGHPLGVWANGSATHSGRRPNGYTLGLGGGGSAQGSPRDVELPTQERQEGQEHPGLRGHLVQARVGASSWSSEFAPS

A2B adenosine receptor [8] = target: T4, A2B adenosine receptor (Homo sapiens, UniProt P29275); settings: [11] Feoktistov and Biaggioni (1998); NECA-stimulated HEL cells; cited from earlier work
T4 sequence (P29275 1-332): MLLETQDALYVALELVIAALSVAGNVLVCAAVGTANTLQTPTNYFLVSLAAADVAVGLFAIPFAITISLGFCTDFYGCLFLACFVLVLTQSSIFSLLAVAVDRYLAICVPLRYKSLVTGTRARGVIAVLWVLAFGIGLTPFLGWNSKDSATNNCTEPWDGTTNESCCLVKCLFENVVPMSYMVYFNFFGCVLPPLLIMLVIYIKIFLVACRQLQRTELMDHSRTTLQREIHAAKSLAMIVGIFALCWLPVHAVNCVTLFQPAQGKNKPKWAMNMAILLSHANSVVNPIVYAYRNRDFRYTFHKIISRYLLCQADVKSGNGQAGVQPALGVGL

A2A adenosine receptor [9] = target: A2A adenosine receptor (Mus musculus, UniProt Q60613); settings: [13] Lopes et al. (2004), striatum, radioligand [3H]SCH58261, cited from earlier work
A2A adenosine receptor (Mus musculus, UniProt Q60613), sequence (Q60613 whole entry): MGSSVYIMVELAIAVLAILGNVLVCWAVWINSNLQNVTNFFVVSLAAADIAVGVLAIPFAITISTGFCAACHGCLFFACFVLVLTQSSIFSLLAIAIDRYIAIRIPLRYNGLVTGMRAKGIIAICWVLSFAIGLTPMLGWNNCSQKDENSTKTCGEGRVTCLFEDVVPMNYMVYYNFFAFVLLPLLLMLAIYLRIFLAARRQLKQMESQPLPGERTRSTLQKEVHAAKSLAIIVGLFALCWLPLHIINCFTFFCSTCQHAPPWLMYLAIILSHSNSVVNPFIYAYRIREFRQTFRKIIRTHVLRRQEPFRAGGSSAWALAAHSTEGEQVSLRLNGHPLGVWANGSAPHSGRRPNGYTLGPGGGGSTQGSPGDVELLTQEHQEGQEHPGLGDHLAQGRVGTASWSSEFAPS

SMILES: Cn1cnc2c(NC3CC4CCC3C4)ncnc21 (stereo not shown) [N-0861]
- pIC50 ([1]; 1 μmol/L NECA): 5.82
- Affinity or potency at A2B, guinea pig (gp) (A2B adenosine receptor [2]): gp 56,200 nmol/L
- Affinity or potency at A2B, guinea pig (gp), log (A2B adenosine receptor [2]): (±11,400), −4.3 [15] log mol/L
- Affinity or potency at A2A, guinea pig (gp) (A2A adenosine receptor [3]): 575 (±86) nmol/L
- Affinity or potency at A2A, guinea pig (gp), log (A2A adenosine receptor [3]): 6.2 log mol/L
- pEC50 (A1 receptors): 6.29
- Affinity or potency at A2A, mouse (m), current study, log (A2A adenosine receptor [4]): −6.3 log mol/L
- Affinity or potency at A2B, mouse (m), current study, log (A2B receptors): 65,610); −4.4 log mol/L
- Affinity or potency (Ki, KD, KB, IC50 or EC50) at A2B, mouse (m), current study (A2B receptors): m 39,350 (23,600- nmol/L

SMILES: CCNC(=O)[C@H]1O[C@@H](n2cnc3c(N)ncnc32)[C@H](O)[C@@H]1O [NECA, 5′-N-ethylcarboxamidoadenosine]
- Effect on eEPC adhesion under laminar flow [5]: significantly increased
- Time of half-maximal effect on eEPC adhesion ([1]; 1 μmol/L NECA): 5 min
- pEC50 ([1]; Mus musculus, 0.5 h, 30 minutes, read-out: EC50, increase of eEPC adhesion): 6.86
- eEPC adhesion ([1]; maximal, concentration-dependent, 30 minutes, basal 4.5±0.3%): 21.3±1.4%
- Effect on CE-EPC adhesion to HMVEC-c cells [6]: stimulated CE-EPC adhesion
- Stimulation of cAMP accumulation (HMVEC-c cells): 5.1±0.1 fold
- Effect on cAMP in eEPCs (eEPCs): did not elevate cAMP

SMILES: Nc1nc2c(cnn2CCc2ccccc2)c2nc(-c3ccco3)nn12 [SCH58261, 5-amino-7-(phenylethyl)-2-(2-furyl)-pyrazolo-[4,3-e]-1,2,4-triazolo-[1,5-c]-pyrimidine]
- Affinity or potency at A2A, rat (r), log (A2A adenosine receptor [7]): r 2.3 (2-2.7); −8.6 [12] log mol/L
- pIC50 ([1]; Mus musculus): 5.77
- Effect on NECA-induced eEPC adhesion at lower concentrations ([1]; concentrations that selectively block A2A receptors, 1 μmol/L NECA): no effect
- Affinity or potency at A2B, human (h) (A2B adenosine receptor [8]): > 100 nM
- Affinity or potency at A2B, human (h), log (A2B adenosine receptor [8]): > −5 log mol/L
- Affinity or potency at A2B, mouse (m), current study, log (A2B receptors): 2,486); −5.7 log mol/L
- Affinity or potency (Ki, KD, KB, IC50 or EC50) at A2B, mouse (m), current study (A2B receptors): m 1,868 (1,404- nmol/L
- Affinity or potency at A2A, mouse (m), log (A2A adenosine receptor [9]): −9.0 log mol/L
- pKi (A2A adenosine receptor [9]; read-out: Affinity or potency at A2A, mouse (m)): 9.00

From US20090136460A1 (VANDERBILT UNIVERSITY, priority 2007, published 2009)
